Measurements from US20250170150A1, “OLFACTORY RECEPTOR 2A4/7 AGONIST FOR PROMOTING HAIR GROWTH AND IMPROVING AESTHETIC ASPECT” (GIULIANI S.P.A., priority 2022, published 2025).
Entries after “also recorded” stand apart in the source; their conditions may differ.

Columns and labels:
OR2A4/7 [1] = conditions: screening approach, Tsai et al. 2017; cited from earlier work
[2] = tested on: microdissected human scalp HFs; assay: Organ culture of microdissected human HFs with CHS: OR2A4/7 expression and HF stem cell/progeny number by quantitative (immuno)histomorphometry; type: cell-based; conditions: 50 μM CHS vs vehicle, 6 days
Description: (§1) Temporal and occipital human scalp skin was obtained from healthy donors (38-69 years old) undergoing routine face-lift surgery. Scalp skin samples were processed for HF microdissection (Edelkamp J, Gherardini J, Bertolini M, Methods to study human hair follicle growth ex vivo: human microdissected hair follicle and human full thickness skin organ culture, Methods Mol. Biol. 2154 (2020) 105-119).
Microdissected human scalp HFs were cultured at 37° C. with 5% CO2 in a minimal media of William's E media (WEM, Gibco, Life Technologies) supplemented with 2 mM of L-glutamine (Gibco), 10 ng/ml hydrocortisone (Sigma-Aldrich), 10 μg/ml insulin (Sigma-Aldrich), and 1% penicillin/streptomycin mix (Gibco) 25,26,62. After microdissection, the HFs were first incubated in WEM for 24 h for re-equilibration.
HFs after quality control (fully pigmented and presence in anagen VI phase) were randomly allocated to the different experimental groups.
After 24 h, WEM mediμm was replaced and HFs were treated with vehicle or 50 μM CHS for 6 days for (immuno) histomorphometry.
OCT-embedded samples were sectioned (6 μm thickness for HF and 7 μm thickness for skin) with a Leica cryostat. Sections obtained from the organ culture were stained using OR2A4/7 and integrin α-6 antibodies. A double-staining, […] wa salso performed. Sections without primary antibody were used as negative control. […]
Staining intensity was evaluated in well-defined reference areas by quantitative (immuno-) histomorphometry (Fischer T W, et al. Differential effects of caffeine on hair shaft elongation, matrix and outer root sheath keratinocyte proliferation, and transforming growth factor-B2/insulin-like growth factor-1-mediated regulation of the hair cycle in male and female human hair follicles in vitro. Br. J. Dermatol. 2014;171:1031-1043. doi: 10.1111/bjd.13114.; Samuelov L, et al. P-cadherin regulates human hair growth and cycling via canonical Wnt signaling and transforming growth factor-62. J. Invest. […]

[3] = tested on: microdissected human scalp HFs; assay: Organ culture of microdissected HFs with CHS: hair cycle staging and hair matrix keratinocyte proliferation (Ki-67/TUNEL, Masson Fontana); type: cell-based; conditions: 50 μM CHS vs vehicle, 6 days
Description: as §1, with “105-119). […]” for “105-119).”
OCT-embedded samples were sectioned (6 μm thickness for HF and 7 μm thickness for skin) with a Leica cryostat. […] Images were taken using a Keyence fluorescence microscope BZ9100 (Osaka, Japan) maintaining a constant set exposure time throughout imaging for further analysis.
HFs were microscopically evaluated for the hair cycle staging analysis using Masson-Fontana histochemistry and Ki-67/TUNEL immunostainings (Langan EA, et al. Human hair follicle organ culture: theory, application and perpsectives. Exp. Dermatol. 2015;24:903-911. doi: 10.1111/exd.12836; Kloepper JE, et al. Methods in hair research: how to objectively distinguish between anagen and catagen in human hair follicle organ culture. Exp. Dermatol. 2010;19:305-312. doi: 10.1111/j.1600-0625.2009.00939.x;). […]

OR2A4/7 [4] = assay: Intracellular Ca2+ signals in human melanocytes; type: cell-based

SMILES: O=C(OC1CCCCC1)c1ccccc1O [CHS, cyclohexyl salicylate]
- agonism at OR2A4/7 (OR2A4/7 [1]): specific agonist
- OR2A4/7 protein expression in the HF bulb ([2]; ex vivo HFs (FIG. 2)): receptor downregulation
- K15+ stem cells in the basal layer of the bulge ([2]; ex vivo HFs (FIG. 3a)): did not seem to impact; also recorded: No differences
- CD34+ cells in the suprabulbar ORS ([2]; ex vivo HFs (FIG. 3b)): significantly increased
- HFs in anagen (hair cycle staging) ([3]; ex vivo HFs (FIG. 4a)): prolongs anagen; also recorded: increase
- hair matrix keratinocyte proliferation (Ki-67) ([3]; ex vivo HFs (FIG. 4b)): induces hair matrix keratinocyte proliferation
- intracellular Ca2+ signals (OR2A4/7 [4]): elicited transient intracellular Ca2+ signals
